{
  "source": "ChEMBL document CHEMBL4020826",
  "about": "(J Med Chem, 2018)",
  "key": {"[1]": {"assay": "Plasma concentration in Sprague-Dawley rat at 0.5 mg/kg/day, sc administered via infusion measured after 48 hrs post dose by LC-MS/MS analysis", "assay_type": "ADME, organism-based"}, "[2]": {"assay": "Cmax in Sprague-Dawley rat at 3 mg/kg, sc measured over 8 hrs by LC-MS/MS analysis", "assay_type": "ADME, organism-based", "parameters": "dose 3 mg/kg, route subcutaneous", "settings": "in vivo"}, "[3]": {"molecular_target": "Group II metabotropic glutamate receptor (mGlu2/mGlu3) (Rattus norvegicus) (UniProt P31421+P31422)", "sequence (P31421 whole entry, looked up)": "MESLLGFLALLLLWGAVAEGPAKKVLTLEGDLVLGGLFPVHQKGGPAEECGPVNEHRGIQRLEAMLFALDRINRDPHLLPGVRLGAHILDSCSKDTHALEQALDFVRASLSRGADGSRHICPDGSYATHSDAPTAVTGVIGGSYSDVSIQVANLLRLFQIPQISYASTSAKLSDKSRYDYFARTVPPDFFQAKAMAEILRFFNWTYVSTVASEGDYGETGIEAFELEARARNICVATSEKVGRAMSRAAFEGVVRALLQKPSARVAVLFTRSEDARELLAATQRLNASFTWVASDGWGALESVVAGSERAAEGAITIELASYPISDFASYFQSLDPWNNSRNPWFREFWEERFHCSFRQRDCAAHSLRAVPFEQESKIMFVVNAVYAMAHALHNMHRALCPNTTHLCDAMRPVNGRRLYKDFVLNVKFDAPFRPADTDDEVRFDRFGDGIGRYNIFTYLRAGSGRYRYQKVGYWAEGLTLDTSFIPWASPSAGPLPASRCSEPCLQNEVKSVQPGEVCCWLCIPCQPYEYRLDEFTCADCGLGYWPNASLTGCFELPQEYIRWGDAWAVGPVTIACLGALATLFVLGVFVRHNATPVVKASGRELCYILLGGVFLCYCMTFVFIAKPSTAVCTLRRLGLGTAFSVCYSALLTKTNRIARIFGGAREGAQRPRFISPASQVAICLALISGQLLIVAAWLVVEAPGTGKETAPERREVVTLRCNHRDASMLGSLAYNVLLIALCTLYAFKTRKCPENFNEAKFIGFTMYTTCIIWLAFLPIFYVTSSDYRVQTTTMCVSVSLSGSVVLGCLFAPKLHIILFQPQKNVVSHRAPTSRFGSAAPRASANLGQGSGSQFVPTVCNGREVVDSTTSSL", "sequence (P31422 whole entry, looked up)": "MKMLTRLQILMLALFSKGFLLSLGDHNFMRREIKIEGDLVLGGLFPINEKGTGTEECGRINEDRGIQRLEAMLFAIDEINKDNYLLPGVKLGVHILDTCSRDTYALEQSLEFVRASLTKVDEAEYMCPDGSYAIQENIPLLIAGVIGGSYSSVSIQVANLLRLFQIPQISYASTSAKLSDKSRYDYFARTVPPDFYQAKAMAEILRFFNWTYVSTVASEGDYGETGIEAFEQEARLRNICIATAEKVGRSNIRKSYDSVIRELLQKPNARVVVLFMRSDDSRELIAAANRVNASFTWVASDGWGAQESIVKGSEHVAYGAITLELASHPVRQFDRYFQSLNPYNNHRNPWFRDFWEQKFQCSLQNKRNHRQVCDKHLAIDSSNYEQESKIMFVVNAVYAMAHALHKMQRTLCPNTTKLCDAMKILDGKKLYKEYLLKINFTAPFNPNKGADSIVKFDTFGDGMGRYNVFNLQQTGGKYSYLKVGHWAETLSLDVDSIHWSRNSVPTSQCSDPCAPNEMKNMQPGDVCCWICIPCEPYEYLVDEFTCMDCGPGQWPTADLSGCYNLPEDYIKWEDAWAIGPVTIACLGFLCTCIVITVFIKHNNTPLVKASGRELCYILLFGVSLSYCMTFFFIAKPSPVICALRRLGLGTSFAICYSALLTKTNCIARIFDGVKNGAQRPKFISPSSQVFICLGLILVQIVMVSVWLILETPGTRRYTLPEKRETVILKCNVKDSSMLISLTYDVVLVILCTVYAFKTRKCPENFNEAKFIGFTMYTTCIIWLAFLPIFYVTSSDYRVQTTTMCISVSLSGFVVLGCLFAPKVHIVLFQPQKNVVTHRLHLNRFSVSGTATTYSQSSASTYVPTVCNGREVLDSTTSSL", "settings": "Sprague-Dawley", "description": "Agonist activity at mGlu2/3 receptor in Sprague-Dawley rat forebrain assessed as inhibition of spontaneous Ca2+ oscillations in cortical neurons after 300 secs by FLIPR assay"}, "[4]": {"molecular_target": "CYP3A4 (Homo sapiens, UniProt P08684)", "sequence (P08684 whole entry)": "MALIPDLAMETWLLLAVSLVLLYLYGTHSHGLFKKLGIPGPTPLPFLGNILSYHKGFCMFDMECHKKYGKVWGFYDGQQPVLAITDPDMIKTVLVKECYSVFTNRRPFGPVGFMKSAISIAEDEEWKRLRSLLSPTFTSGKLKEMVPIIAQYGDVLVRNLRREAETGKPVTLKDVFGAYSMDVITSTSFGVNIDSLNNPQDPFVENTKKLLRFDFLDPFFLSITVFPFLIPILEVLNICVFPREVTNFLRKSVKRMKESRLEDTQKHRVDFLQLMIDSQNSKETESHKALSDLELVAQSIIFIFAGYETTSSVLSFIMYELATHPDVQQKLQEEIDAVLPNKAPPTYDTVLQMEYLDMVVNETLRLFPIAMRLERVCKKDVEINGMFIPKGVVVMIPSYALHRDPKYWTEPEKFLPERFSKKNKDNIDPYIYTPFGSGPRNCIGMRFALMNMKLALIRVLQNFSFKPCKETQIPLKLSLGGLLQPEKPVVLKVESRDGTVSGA", "assay": "Inhibition of human CYP3A4 at 10 uM", "assay_type": "ADME"}, "[5]": {"assay": "Plasma concentration in Sprague-Dawley rat at 5 mg/kg/day, sc administered via infusion measured after 24 hrs post dose by LC-MS/MS analysis", "assay_type": "ADME, organism-based"}, "[6]": {"assay": "Drug level in Sprague-Dawley rat CSF at 1 mg/kg, sc administered as single dose measured after 1 hr post dose by LC-MS/MS analysis", "assay_type": "ADME, organism-based, Cerebrospinal fluid", "settings": "read-out: Drug uptake"}, "[7]": {"molecular_target": "Metabotropic glutamate receptor 6 (Homo sapiens, UniProt O15303)", "sequence (O15303 whole entry)": "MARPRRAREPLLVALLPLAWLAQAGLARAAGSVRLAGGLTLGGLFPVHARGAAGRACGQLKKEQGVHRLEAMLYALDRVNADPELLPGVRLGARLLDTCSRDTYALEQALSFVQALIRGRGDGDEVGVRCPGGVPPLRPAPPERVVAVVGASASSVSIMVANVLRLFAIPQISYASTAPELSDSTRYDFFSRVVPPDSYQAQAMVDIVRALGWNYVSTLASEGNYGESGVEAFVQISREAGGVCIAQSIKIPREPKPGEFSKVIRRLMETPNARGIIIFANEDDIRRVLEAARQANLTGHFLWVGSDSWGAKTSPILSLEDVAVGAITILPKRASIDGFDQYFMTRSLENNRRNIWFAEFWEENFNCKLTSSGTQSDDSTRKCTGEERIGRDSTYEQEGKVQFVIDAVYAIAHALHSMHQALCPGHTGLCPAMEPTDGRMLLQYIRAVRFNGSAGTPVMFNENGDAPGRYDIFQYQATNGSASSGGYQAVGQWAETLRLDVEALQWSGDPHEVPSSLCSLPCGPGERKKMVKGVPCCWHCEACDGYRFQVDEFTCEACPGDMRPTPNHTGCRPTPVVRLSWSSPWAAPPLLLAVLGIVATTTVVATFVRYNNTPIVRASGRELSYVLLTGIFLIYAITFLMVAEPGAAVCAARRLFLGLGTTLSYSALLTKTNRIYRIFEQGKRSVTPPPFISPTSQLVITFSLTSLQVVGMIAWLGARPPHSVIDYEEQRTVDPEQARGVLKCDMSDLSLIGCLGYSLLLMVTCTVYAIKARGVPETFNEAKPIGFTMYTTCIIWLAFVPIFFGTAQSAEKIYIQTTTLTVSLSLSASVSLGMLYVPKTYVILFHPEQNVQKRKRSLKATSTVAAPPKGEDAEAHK", "assay": "Agonist activity at human mGlu6 receptor expressed in hamster AV12 cells co-expressing rat EAAT1 assessed as inhibition of forskolin-stimulated cAMP formation after 20 mins by HTRF assay", "assay_type": "functional, cell-based"}, "[8]": {"assay": "Plasma concentration in Sprague-Dawley rat at 5 mg/kg/day, sc administered via infusion measured after 48 hrs post dose by LC-MS/MS analysis", "assay_type": "ADME, organism-based"}, "[9]": {"molecular_target": "T1, Metabotropic glutamate receptor 2 (Homo sapiens, UniProt Q14416)", "T1 sequence (Q14416 whole entry)": "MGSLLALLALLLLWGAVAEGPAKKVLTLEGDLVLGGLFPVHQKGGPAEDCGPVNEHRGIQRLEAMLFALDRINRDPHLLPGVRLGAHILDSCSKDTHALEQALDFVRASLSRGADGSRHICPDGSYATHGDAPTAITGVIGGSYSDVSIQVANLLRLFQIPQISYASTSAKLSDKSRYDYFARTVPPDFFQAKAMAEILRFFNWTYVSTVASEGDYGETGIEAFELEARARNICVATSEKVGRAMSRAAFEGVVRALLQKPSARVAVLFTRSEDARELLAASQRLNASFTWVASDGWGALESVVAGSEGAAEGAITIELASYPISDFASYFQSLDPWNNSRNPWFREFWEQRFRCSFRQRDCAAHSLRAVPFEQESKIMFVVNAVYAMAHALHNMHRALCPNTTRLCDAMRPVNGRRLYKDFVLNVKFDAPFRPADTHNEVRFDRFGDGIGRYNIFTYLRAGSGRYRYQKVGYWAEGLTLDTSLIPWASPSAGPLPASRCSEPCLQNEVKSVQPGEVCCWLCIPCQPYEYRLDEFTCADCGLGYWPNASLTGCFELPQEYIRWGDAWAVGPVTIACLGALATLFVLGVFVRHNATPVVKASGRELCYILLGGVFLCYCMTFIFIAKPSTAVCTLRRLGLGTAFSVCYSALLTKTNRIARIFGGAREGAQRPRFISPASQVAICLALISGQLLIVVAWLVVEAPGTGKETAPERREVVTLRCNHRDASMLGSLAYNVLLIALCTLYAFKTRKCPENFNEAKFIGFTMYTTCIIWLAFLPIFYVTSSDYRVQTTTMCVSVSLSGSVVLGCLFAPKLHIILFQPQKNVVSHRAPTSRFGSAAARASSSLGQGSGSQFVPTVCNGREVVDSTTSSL", "assay": "Agonist activity at recombinant human mGlu2 receptor expressed in hamster AV12 cells co-expressing rat EAAT1/Galpha15 assessed as induction of increase in Ca2+ flux after 2.5 mins by Fluo-3 AM dye-based FLIPR assay"}, "[10]": {"molecular_target": "CYP2D6 (Homo sapiens, UniProt P10635)", "assay": "Inhibition of human CYP2D6 at 10 uM", "assay_type": "ADME"}, "[11]": {"tested_on": "Rattus norvegicus", "assay": "Toxicity in Sprague-Dawley rat assessed as reduction in spontaneous locomotive activity at 30 mg/kg, sc after 30 mins", "assay_type": "organism-based", "parameters": "scale not given: the % may be the effect or the level left", "settings": "in vivo, 0.5 h"}, "[12]": {"assay": "Plasma concentration in Sprague-Dawley rat at 0.1 mg/kg, sc administered as single dose measured after 1 hr post dose by LC-MS/MS analysis", "assay_type": "ADME, organism-based"}, "[13]": {"assay": "Drug level in Sprague-Dawley rat CSF at 1.5 mg/kg/day, sc administered via infusion measured after 72 hrs post dose by LC-MS/MS analysis", "assay_type": "ADME, organism-based, Cerebrospinal fluid", "settings": "read-out: Drug uptake"}, "[14]": {"assay": "Clearance in Sprague-Dawley rat at 1 mg/kg, iv measured over 8 hrs by LC-MS/MS analysis", "assay_type": "ADME, organism-based", "settings": "in vivo"}, "[15]": {"molecular_target": "Metabotropic glutamate receptor 5 (Homo sapiens, UniProt P41594)", "assay": "Antagonist activity at recombinant human mGlu5 receptor expressed in hamster AV12 cells co-expressing rat EAAT1/Galpha15 assessed as inhibition of glutamate induced increase in Ca2+ flux after 2.5 mins by Fluo-3 AM dye-based FLIPR assay", "assay_type": "functional, cell-based"}, "[16]": {"assay": "Drug level in Sprague-Dawley rat CSF at 10 mg/kg, sc administered as single dose measured after 1 hr post dose by LC-MS/MS analysis", "assay_type": "ADME, organism-based, Cerebrospinal fluid", "settings": "read-out: Drug uptake"}, "[17]": {"molecular_target": "Metabotropic glutamate receptor 4 (Homo sapiens, UniProt Q14833)", "assay": "Agonist activity at recombinant human mGlu4 receptor expressed in hamster AV12 cells co-expressing rat EAAT1/Galpha15 assessed as induction of increase in Ca2+ flux after 2.5 mins by Fluo-3 AM dye-based FLIPR assay", "assay_type": "functional, cell-based"}, "[18]": {"organism": "Rattus norvegicus", "assay": "Drug metabolism in Sprague-Dawley rat assessed as (1S,2S,4S,5R,6S)-di-tert-butyl 4-amino-2-(tert-butoxycarbonylamino)bicyclo[3.1.0]hexane-2,6-dicarboxylate formation measured over 24 hrs", "assay_type": "ADME"}, "[19]": {"assay": "AUC in Sprague-Dawley rat at 3 mg/kg, sc measured over 8 hrs by LC-MS/MS analysis", "assay_type": "ADME, organism-based", "parameters": "dose 3 mg/kg, time < 8 hr, route subcutaneous", "settings": "in vivo"}, "[20]": {"molecular_target": "T2, Metabotropic glutamate receptor 8 (Homo sapiens, UniProt O00222)", "T2 sequence (O00222 whole entry)": "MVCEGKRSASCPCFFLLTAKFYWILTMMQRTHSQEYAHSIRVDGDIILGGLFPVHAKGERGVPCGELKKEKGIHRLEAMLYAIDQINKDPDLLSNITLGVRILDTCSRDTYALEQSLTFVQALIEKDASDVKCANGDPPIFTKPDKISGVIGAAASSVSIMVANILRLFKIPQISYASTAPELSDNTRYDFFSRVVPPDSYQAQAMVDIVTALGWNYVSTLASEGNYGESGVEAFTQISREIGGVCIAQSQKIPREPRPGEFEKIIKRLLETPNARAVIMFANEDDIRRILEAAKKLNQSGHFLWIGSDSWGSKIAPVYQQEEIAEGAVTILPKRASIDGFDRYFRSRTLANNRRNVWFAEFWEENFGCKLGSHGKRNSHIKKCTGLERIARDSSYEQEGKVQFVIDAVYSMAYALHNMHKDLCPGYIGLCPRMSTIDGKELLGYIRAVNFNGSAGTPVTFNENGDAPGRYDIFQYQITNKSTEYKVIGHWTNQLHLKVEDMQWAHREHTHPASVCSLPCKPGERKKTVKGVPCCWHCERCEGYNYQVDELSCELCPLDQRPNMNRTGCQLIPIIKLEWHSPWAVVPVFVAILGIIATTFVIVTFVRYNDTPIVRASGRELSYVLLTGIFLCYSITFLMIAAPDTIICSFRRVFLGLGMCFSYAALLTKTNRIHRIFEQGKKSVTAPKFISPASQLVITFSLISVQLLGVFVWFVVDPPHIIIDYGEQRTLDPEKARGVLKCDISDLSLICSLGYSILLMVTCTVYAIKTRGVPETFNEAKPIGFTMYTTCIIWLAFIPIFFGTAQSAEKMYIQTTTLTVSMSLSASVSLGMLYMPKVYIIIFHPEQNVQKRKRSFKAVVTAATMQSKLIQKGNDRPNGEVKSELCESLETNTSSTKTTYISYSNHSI", "assay": "Antagonist activity at recombinant human mGlu8 receptor expressed in hamster AV12 cells co-expressing rat EAAT1/Galpha15 assessed as inhibition of glutamate induced increase in Ca2+ flux after 2.5 mins by Fluo-3 AM dye-based FLIPR assay", "assay_type": "functional, cell-based"}, "[21]": {"assay": "Plasma concentration in Sprague-Dawley rat at 5 mg/kg/day, sc administered via infusion measured after 72 hrs post dose by LC-MS/MS analysis", "assay_type": "ADME, organism-based"}, "[22]": {"assay": "Plasma concentration in Sprague-Dawley rat at 1.5 mg/kg/day, sc administered via infusion measured after 48 hrs post dose by LC-MS/MS analysis", "assay_type": "ADME, organism-based"}, "[23]": {"organism": "Rattus norvegicus", "assay": "Drug metabolism in Sprague-Dawley rat assessed as (1S,2S,4S,5R,6S)-2-Amino-4-[(3-hydroxybenzoyl)amino]-bicyclo[3.1.0]hexane-2,6-dicarboxylic Acid formation measured over 24 hrs", "assay_type": "ADME"}, "[24]": {"assay": "Plasma concentration in Sprague-Dawley rat at 0.5 mg/kg/day, sc administered via infusion measured after 6 hrs post dose by LC-MS/MS analysis", "assay_type": "ADME, organism-based"}, "[25]": {"assay": "Half life in Sprague-Dawley rat at 1 mg/kg, iv measured over 8 hrs by LC-MS/MS analysis", "assay_type": "ADME, organism-based", "settings": "in vivo"}, "[26]": {"molecular_target": "T2, Metabotropic glutamate receptor 8", "assay": "Agonist activity at recombinant human mGlu8 receptor expressed in hamster AV12 cells co-expressing rat EAAT1/Galpha15 assessed as induction of increase in Ca2+ flux after 2.5 mins by Fluo-3 AM dye-based FLIPR assay", "assay_type": "functional, cell-based"}, "[27]": {"assay": "Plasma concentration in Sprague-Dawley rat at 10 mg/kg, sc administered as single dose measured after 1 hr post dose by LC-MS/MS analysis", "assay_type": "ADME, organism-based"}, "[28]": {"assay": "Drug metabolism in human liver microsomes at 4 uM", "assay_type": "ADME, microsome", "settings": "read-out: Drug metabolism"}, "[29]": {"assay": "Fraction unbound in rat brain", "assay_type": "ADME, tissue-based"}, "[30]": {"assay": "Plasma concentration in Sprague-Dawley rat at 15 mg/kg/day, sc administered via infusion measured after 48 hrs post dose by LC-MS/MS analysis", "assay_type": "ADME, organism-based"}, "[31]": {"assay": "Drug level in Sprague-Dawley rat CSF at 0.1 mg/kg, sc administered as single dose measured after 1 hr post dose by LC-MS/MS analysis", "assay_type": "ADME, organism-based, Cerebrospinal fluid", "settings": "read-out: Drug uptake"}, "[32]": {"assay": "Cmax in Sprague-Dawley rat at 1 mg/kg, iv measured over 8 hrs by LC-MS/MS analysis", "assay_type": "ADME, organism-based", "parameters": "dose 1 mg/kg, route intravenous", "settings": "in vivo"}, "[33]": {"assay": "Plasma concentration in Sprague-Dawley rat at 1.5 mg/kg/day, sc administered via infusion measured after 24 hrs post dose by LC-MS/MS analysis", "assay_type": "ADME, organism-based"}, "[34]": {"assay": "Plasma concentration in Sprague-Dawley rat at 1.5 mg/kg/day, sc administered via infusion measured after 72 hrs post dose by LC-MS/MS analysis", "assay_type": "ADME, organism-based"}, "[35]": {"assay": "Drug metabolism in rat liver microsomes at 4 uM", "assay_type": "ADME, microsome", "settings": "read-out: Drug metabolism"}, "[36]": {"assay": "Plasma concentration in Sprague-Dawley rat at 15 mg/kg/day, sc administered via infusion measured after 6 hrs post dose by LC-MS/MS analysis", "assay_type": "ADME, organism-based"}, "[37]": {"assay": "Plasma concentration in Sprague-Dawley rat at 15 mg/kg/day, sc administered via infusion measured after 12 hrs post dose by LC-MS/MS analysis", "assay_type": "ADME, organism-based"}, "[38]": {"molecular_target": "T1, Metabotropic glutamate receptor 2", "assay": "Agonist activity at human mGlu2 receptor expressed in HEK cells assessed as inhibition of forskolin-stimulated cAMP formation after 20 mins by HTRF assay", "assay_type": "functional, cell-based"}},
  "data": [
    {"compound": "COc1cccc(C(=O)N[C@H]2C[C@@](N)(C(=O)O)[C@@H]3[C@@H](C(=O)O)[C@@H]32)c1", "values": [
      {"measurement": "concentration at 48 h", "setting": "[1]", "value": 95.1, "unit": "nM"},
      {"measurement": "Cmax", "setting": "[2]", "value": 6780, "unit": "nM"},
      {"measurement": "EC50H", "setting": "[3]", "value": 0.44, "unit": "nM"},
      {"measurement": "EC50L", "setting": "[3]", "value": 43.6, "unit": "nM"},
      {"measurement": "inhibition at 10 µM", "setting": "[4]", "value": 3.6, "unit": "%"},
      {"measurement": "concentration at 24 h", "setting": "[5]", "value": 1300, "unit": "nM"},
      {"measurement": "concentration at 1 h", "setting": "[6]", "value": "12.5 to 22.5", "unit": "nM"},
      {"measurement": "EC50", "setting": "[7]", "value": 1950, "unit": "nM"},
      {"measurement": "concentration at 48 h", "setting": "[8]", "value": 871, "unit": "nM"},
      {"measurement": "EC50", "setting": "[9]", "value": 277, "unit": "nM"},
      {"measurement": "inhibition at 10 µM", "setting": "[10]", "value": 0, "unit": "%"},
      {"measurement": "Activity", "setting": "[11]", "value": 32, "unit": "%"},
      {"measurement": "concentration at 1 h", "setting": "[12]", "value": 286, "unit": "nM"},
      {"measurement": "concentration at 72 h", "setting": "[13]", "value": 7.5, "unit": "nM"},
      {"measurement": "clearance", "setting": "[14]", "value": 18.3, "unit": "mL/min/kg"},
      {"measurement": "IC50", "setting": "[15]", "value": "> 12500", "unit": "nM"},
      {"measurement": "concentration at 1 h", "setting": "[16]", "value": 249, "unit": "nM"},
      {"measurement": "EC50", "setting": "[17]", "value": 11800, "unit": "nM"},
      {"measurement": "Drug metabolism", "setting": "[18]", "value": "< 2.5", "unit": "nM"},
      {"measurement": "AUC at 8 h", "setting": "[19]", "value": 9.88, "unit": "µM·h"},
      {"measurement": "IC50", "setting": "[20]", "value": "> 12500", "unit": "nM"},
      {"measurement": "concentration at 72 h", "setting": "[21]", "value": 1310, "unit": "nM"},
      {"measurement": "concentration at 48 h", "setting": "[22]", "value": 224, "unit": "nM"},
      {"measurement": "Drug metabolism", "setting": "[23]", "value": "< 2.5", "unit": "nM"},
      {"measurement": "concentration at 6 h", "setting": "[24]", "value": 156, "unit": "nM"},
      {"measurement": "half-life", "setting": "[25]", "value": 3.1, "unit": "h"},
      {"measurement": "EC50", "setting": "[26]", "value": "> 25000", "unit": "nM"},
      {"measurement": "concentration at 1 h", "setting": "[27]", "value": 25900, "unit": "nM"},
      {"measurement": "metabolised at 4 µM", "setting": "[28]", "value": 12.3, "unit": "%"},
      {"measurement": "fraction unbound", "setting": "[29]", "value": 1},
      {"measurement": "concentration at 48 h", "setting": "[30]", "value": 2130, "unit": "nM"},
      {"measurement": "concentration at 1 h", "setting": "[31]", "value": 2.48, "unit": "nM"},
      {"measurement": "Cmax", "setting": "[32]", "value": 6390, "unit": "nM"},
      {"measurement": "concentration at 24 h", "setting": "[33]", "value": 403, "unit": "nM"},
      {"measurement": "concentration at 72 h", "setting": "[34]", "value": 361, "unit": "nM"},
      {"measurement": "metabolised at 4 µM", "setting": "[35]", "value": 23, "unit": "%"},
      {"measurement": "concentration at 6 h", "setting": "[36]", "value": 3840, "unit": "nM"},
      {"measurement": "concentration at 12 h", "setting": "[37]", "value": 3070, "unit": "nM"},
      {"measurement": "EC50", "setting": "[38]", "value": 47.5, "unit": "nM"}
    ]}
  ]
}
